Test results published in article PMC6277767, “Broad and Region-Specific Impacts of the Synthetic Cannabinoid CP 55,940 in Adolescent and Adult Female Mouse Brains” (Frontiers in Molecular Neuroscience, 2018).

Tested on: CD1 female mouse brain lipidome
Assay: Brain-region lipid levels (HPLC/MS/MS lipidomics) 2 h after single i.p. 3 mg/kg CP 55,940 vs vehicle
Format: in vivo
Set-up: N-arachidonoyl phenylalanine level, Mean / N-stearoyl tryptophan level, Mean / N-stearoyl proline level, Mean / N-stearoyl leucine level, Mean / N-stearoyl phenylalanine level, Mean / N-stearoyl serine level, Mean / N-stearoyl methionine level, Mean: unit: moles per gram
Conditions: thalamus
Experimental: The Bloomington Institutional Animal Care and Use Committee of Indiana University reviewed and approved the animal procedures. Female mice from the CD1 strain were utilized to match our study examining THC’s effects on the brain lipidome ([Leishman et al., 2018]). Mice were given a single i.p. injection of either 3 mg/kg CP or 1:1:18 cremophor:ethanol:saline vehicle (please refer to the section “3 mg/kg CP Is Relevant for Synthetic Cannabinoid Abuse and Has Stronger Effects on the Female Mouse Brain Lipidome During Adolescence” for a justification of dose and use of female mice). Three different age groups were given injections: PND 35 and PND 50 adolescents, and adult mice (PND 113). At least eight mice in each age group received CP and at least eight received vehicle. Matching the THC study time course ([Leishman et al., 2018]), mice were sacrificed via rapid decapitation 2 h after injection. Brains were immediately removed and flash-frozen in liquid nitrogen, and then stored at -80°C until dissections were performed. Brains were dissected on an ice-cold dissection plate into the following regions: STR, HIPP, CER, THAL, CTX, HYP, MID, and STEM. These abbreviations for these brain areas will be used exclusively when discussing the results generated by these specific dissections. Each dissected area was immediately placed in liquid nitrogen and then stored at -80°C until used for lipid extraction.
Tissue extracts were performed as previously described ([Bradshaw et al., 2006]; [Stuart et al., 2013]; [Raboune et al., 2014]; [Leishman et al., 2016a],[b], [2017], [2018]). First, samples were shock frozen in liquid nitrogen, weighed, and transferred to a centrifuge tube. The mass of the largest sample was multiplied by 50 to determine how many milliliters of HPLC-grade methanol (Fisher, Fair Lawn, NJ, United States) to add. Then, samples were spiked with 500 pmol deuterium-labeled NAGly (d8NAGly; Cayman Chemical, Ann Arbor, MI, United States). Samples were placed on ice in darkness for 2 h then individually homogenized and centrifuged at 19,000 × g for 20 min at 20°C. Supernatants were diluted with HPLC water (purified in house) to make a solution of 75% water, 25% supernatant. Lipids were partially purified on C18 solid phase extraction columns (Agilent, Palo Alto, CA, United States). A series of four elutions with 1.5 mL of 60%, 75%, 85%, and 100% methanol were collected ([Stuart et al., 2013]; [Leishman et al., 2016a],[b], [2018]).
As previously described ([Bradshaw et al., 2006]; [Tan et al., 2006]; [Smoum et al., 2010]; [Stuart et al., 2013]; [Tortoriello et al., 2013]; [Raboune et al., 2014]; [Leishman et al., 2016a],[b], [2017], [2018]), samples were analyzed using an Applied Biosystems API 3000 triple quadrupole mass spectrometer with electrospray ionization (Foster City, CA, United States). Using an Agilent XDB-C18 reversed phase analytical column and optimized mobile phase gradients, 20 μL from each elution were chromatographed. Two Shimadzu 10ADvp pumps (Columbia, MD, United States) provided the pressure for gradient elution. Mobile phase A: 20% methanol, 80% water (v/v) and 1 mM ammonium acetate (Sigma, St. Louis, MO, United States). Mobile phase B: 100% methanol, 1 mM ammonium acetate. Every method run began with 0% mobile phase B, reached 100% mobile phase B flowing at 0.2 mL/min, and gradually returned to 0% mobile phase B.
This screening library will be referred to as the lipidome when discussing data from this study. HPLC/MS/MS data were analyzed using Analyst software (Applied Biosystems) ([Bradshaw et al., 2006]; [Tan et al., 2006]; [Stuart et al., 2013]; [Tortoriello et al., 2013]; [Raboune et al., 2014]; [Leishman et al., 2016a],[b], [2017], [2018]). Chromatograms (Supplementary Figure 3) were generated by determining the retention time of analytes from the analytical column with a [M-1] or [M+1] parent peak and a fragmentation peak corresponding to the programmed values. […]

[1] = PND 50 female mice, 3 mg/kg CP 55,940
[2] = WT adult female mice, 3mg/kg CP 55,940

CCCCCCC(C)(C)c1ccc([C@@H]2C[C@H](O)CC[C@H]2CCCO)c(O)c1 [CP 55,940]
N-palmitoyl serine: Direction (relative to Veh) (PND 50, 3 mg/kg CP 55,940): ↓ | N-palmitoyl serine: Magnitude (x Veh level) (PND 50, 3 mg/kg CP 55,940): 0.82 x Veh level | N-stearoyl serine: Direction (relative to Veh) (PND 50, 3 mg/kg CP 55,940): ↓ | N-stearoyl serine: Magnitude (x Veh level) (PND 50, 3 mg/kg CP 55,940): 0.87 x Veh level | Oleic acid: Direction (relative to Veh) (PND 50, 3 mg/kg CP 55,940): ↓ | Oleic acid: Magnitude (x Veh level) (PND 50, 3 mg/kg CP 55,940): 0.83 x Veh level | PGE2: Direction (relative to Veh) (PND 50, 3 mg/kg CP 55,940): ↓ | PGE2: Magnitude (x Veh level) (PND 50, 3 mg/kg CP 55,940): 0.74 x Veh level | PGF2α: Direction (relative to Veh) (PND 50, 3 mg/kg CP 55,940): ↓ | PGF2α: Magnitude (x Veh level) (PND 50, 3 mg/kg CP 55,940): 0.84 x Veh level | 2-arachidonoyl glycerol level, Mean [1]: 2.19E-10 | 2-linoleoyl glycerol level, Mean [1]: 2.06E-10 | 2-oleoyl glycerol level, Mean [1]: 2.79E-09 | 2-palmitoyl glycerol level, Mean [1]: 1.02E-09 | 6-ketoPGF1α level, Mean [1]: 1.21E-11 | 11-OH-THC level, Mean [1]: BDL | 11-nor-9-carboxyTHC level, Mean [1]: BDL | Arachidonic acid level, Mean [1]: 3.32E-10 | Cannabidiol level, Mean [1]: BDL | Linoleic acid level, Mean [1]: 2.28E-10 | N- stearoyl valine level, Mean [1]: 1.2E-13 | N-arachidonoyl GABA level, Mean [1]: 1.06E-11 | N-arachidonoyl dopamine level, Mean [1]: BDL | N-arachidonoyl ethanolamine level, Mean [1]: 3.67E-11 | N-arachidonoyl glycine level, Mean [1]: 2.22E-12 | N-arachidonoyl phenylalanine level, Mean [1]: 2.35E-13 | N-arachidonoyl proline level, Mean [1]: BDL | N-arachidonoyl serine level, Mean [1]: 9.47E-12 | N-arachidonoyl taurine level, Mean [1]: 2.48E-11 | N-arachidonoyl tryptophan level, Mean [1]: BDL | N-arachidonoyl tyrosine level, Mean [1]: 3.46E-13 | N-docosahexaenoyl GABA level, Mean [1]: 1.17E-12 | N-docosahexaenoyl ethanolamine level, Mean [1]: 4.85E-11 | N-docosahexaenoyl glycine level, Mean [1]: 2.76E-13 | N-docosahexaenoyl leucine level, Mean [1]: 1.83E-13 | N-docosahexaenoyl proline level, Mean [1]: BDL | N-docosahexaenoyl serine level, Mean [1]: 1.8E-11 | N-docosahexaenoyl tryptophan level, Mean [1]: BDL | N-docosahexaenoyl tyrosine level, Mean [1]: 5.89E-13 | N-docosahexaenoyl valine level, Mean [1]: BDL | N-linoleoyl GABA level, Mean [1]: 6.3E-13 | N-linoleoyl ethanolamine level, Mean [1]: 5.72E-11 | N-linoleoyl glycine level, Mean [1]: 1.48E-13 | N-linoleoyl leucine level, Mean [1]: 4.17E-14 | N-linoleoyl proline level, Mean [1]: BDL | N-linoleoyl serine level, Mean [1]: 6.59E-11 | N-linoleoyl tryptophan level, Mean [1]: BDL | N-linoleoyl valine level, Mean [1]: BDL | N-nervonoyl valine level, Mean [1]: BDL | N-oleoyl GABA level, Mean [1]: 4.02E-12 | N-oleoyl alanine level, Mean [1]: 7.11E-13 | N-oleoyl dopamine level, Mean [1]: BDL | N-oleoyl ethanolamine level, Mean [1]: 9.26E-11 | N-oleoyl glycine level, Mean [1]: 1.74E-12 | N-oleoyl leucine level, Mean [1]: 5.99E-13 | N-oleoyl methionine level, Mean [1]: 2.91E-13 | N-oleoyl phenylalanine level, Mean [1]: 9.22E-13 | N-oleoyl proline level, Mean [1]: BDL | N-oleoyl serine level, Mean [1]: 1.27E-10 | N-oleoyl tryptophan level, Mean [1]: BDL | N-oleoyl tyrosine level, Mean [1]: 4.03E-13 | N-palmitoyl GABA level, Mean [1]: 1.06E-11 | N-palmitoyl alanine level, Mean [1]: 2.52E-12 | N-palmitoyl ethanolamine level, Mean [1]: 7.34E-11 | N-palmitoyl glycine level, Mean [1]: 9.61E-12 | N-palmitoyl leucine level, Mean [1]: 1.53E-12 | N-palmitoyl methionine level, Mean [1]: 1.27E-12 | N-palmitoyl phenylalanine level, Mean [1]: 1.34E-12 | N-palmitoyl proline level, Mean [1]: BDL | N-palmitoyl serine level, Mean [1]: 2.63E-11 | N-palmitoyl tryptophan level, Mean [1]: BDL | N-palmitoyl tyrosine level, Mean [1]: 8.81E-13 | N-palmitoyl valine level, Mean [1]: 1.92E-13 | N-stearoyl GABA level, Mean [1]: 1.06E-11 | N-stearoyl alanine level, Mean [1]: 5.6E-13 | N-stearoyl ethanolamine level, Mean [1]: 3.31E-11 | N-stearoyl glycine level, Mean [1]: 1.16E-12 | N-stearoyl leucine level, Mean [1]: 1.04E-12 | N-stearoyl methionine level, Mean [1]: 8.73E-13 | N-stearoyl phenylalanine level, Mean [1]: 1.21E-12 | N-stearoyl proline level, Mean [1]: BDL | N-stearoyl serine level, Mean [1]: 4.06E-11 | N-stearoyl tryptophan level, Mean [1]: BDL | N-stearoyl tyrosine level, Mean [1]: 1.18E-13 | Oleic acid level, Mean [1]: 3.18E-10 | PGE2 level, Mean [1]: 8.74E-11 | THC level, Mean [1]: BDL | 2-arachidonoyl glycerol level, Mean [2]: 3E-09 | 2-linoleoyl glycerol level, Mean [2]: 2.71E-10 | 2-oleoyl glycerol level, Mean [2]: 3.61E-09 | 2-palmitoyl glycerol level, Mean [2]: 8.84E-11 | 6-ketoPGF1α level, Mean [2]: 3.33E-11 | Arachidonic acid level, Mean [2]: 9.32E-10 | Linoleic acid level, Mean [2]: 4.92E-10 | N-arachidonoyl GABA level, Mean [2]: 2.04E-11 | N-arachidonoyl alanine level, Mean [2]: 9.44E-13 | N-arachidonoyl ethanolamine level, Mean [2]: 1.69E-11 | N-arachidonoyl glycine level, Mean [2]: 5.38E-13 | N-arachidonoyl phenylalanine level, Mean [2]: 1.15E-13 | N-arachidonoyl taurine level, Mean [2]: 5.3E-11 | N-arachidonoyl tyrosine level, Mean [2]: 6.37E-13 | N-docosahexaenoyl GABA level, Mean [2]: 9.36E-12
